Laboratory results taken from patent US4912036A, “Rapid differentiation of bacteria using cyclic polypeptide antibiotics” (Eastman Kodak Company, priority 1986, dated 1990).

Key:
E. coli = assay: DCIP reduction solution assay, ΔOD 620 nm; type: cell-based, Escherichia coli; conditions: E. coli (-) 5×10^7, gramicidin S 0.00625 mg/ml, 37° C.
Method: (§1) These examples illustrate the differentiation of bacteria using a tetrazolium salt and phenolic dye as the reducible compounds and two cyclic polypeptide antibiotics according to the present invention. The tetrazolium salt was 3-(4,5-dimethyl-2-thiazolyl) -2,5-diphenyl-2H-tetrazolium bromide (MTT) which forms a colored formazan dye when reduced. The phenolic dye was 2,6-dichloroindophenol (DCIP) which forms a colorless species when reduced.
(§2) Solutions of the reducible compounds were prepared with the following: HEPES buffer (3 ml, 0.05 molar, pH 7.5), TRITON X-100 nonionic surfactant (1% concentration), glucose (50 μl of 10% in water), tryptose (50 μl of a 10% solution in water), MTT (25 μl of 5 mg/ml methanol) or DCIP (25 μl of 3 mg/ml methanol) and phenazine methosultate ETA (25 μl of 3 mg/ml methanol).
(§3) Test solutions were prepared from the following: reducible compound solution from above (200 μl), 50 μl of either gramicidin S solution (6 mg/ml methanol and 9 ml of buffer) or tyrocidin solution (100 mg/ml methanol and 8 ml of buffer) and 50 μl of cell suspension. […] The change in optical density (ΔOD) was determined after 30 minutes at 37° C. at 540 nm for the MTT assay and at 620 nm for the DCIP assay using a commercially available spectrophotometer.

E. cloacae = assay: RIND XXIX reduction solution assay, Δ fluorescence; type: cell-based, Enterobacter cloacae; conditions: E. cloacae (gram -) about 5×10^7 cells/ml, gramicidin S 0.1 mg/ml, 37° C.
Method: (§4) Bacterial suspensions were prepared by growing the cells in BHT broth to stationary phase overnight at 37° C. P. auruginosa was grown with agitation. About 40 ml of each overnight culture was centrifuged, decanted and washed once with 0.05 molar potassium phosphate buffer or 0.05 molar N-2-hydroxy-ethylpiperazine-N'-2-ethanesulfonic acid (HEPES) buffer, pH 7.8, and resuspended in buffer.
(§5) Dispersions containing RIND compounds were prepared by dissolving the RIND compound in N,N-dimethylformamide (DMF) at 16 mg compound per ml of solvent. An aliquot (250 μl) of the resulting solution was added to 500 μl of TRITON X-100 surfactant. This mixture was then added dropwise with stirring to 25 ml of 0.05 molar HEPES buffer. A dispersion of RIND XXIX was prepared similarly except that DMF was acidified with 0.1% sulfuric acid. Compositions containing water-compatible RIND compounds were prepared as described above except the surfactant was omitted.
(§6) Each test solution contained the following: dispersion of RIND XXIX (25 μl) prepared as described above, glucose (400 μl of 10% aqueous solution), tryptose (400 μl of 10% aqueous solution), trimethyl-1,4-benzoquinone ETA (500 μl of 1.5 mg/ml methanol). Aliquots (200 μl) of the mixture were mixed with solutions of the antibiotics (50 μl). The cell suspensions (50 μl) were then added. The final concentration of gramcidin S and tyrocidin were 0.1 mg/ml and 3.3 mg/ml, respectively. The final cell concentration was about 5×10^7 cells/ml. Cell control solutions contained all reagents except antibiotics. Background controls consisted of both buffer and solution controls. […]
(§7) The solutions were incubated at 37° C. for 30 minutes, and the change in fluorescence emission (Δ fluorescence) was determined as the difference between the readings taken when the solutions were first mixed and then after 30 minutes incubation. Measurements were made in a commercially available MICROFLUOR Reader (available from Dynatech Laboratories, Alexandria, Virginia, U.S.A.), modified with an excitation filter at 540 nm, an emission filter at 620 nm and a Xenon lamp. […]

S. aureus = assay: RIND XXIX reduction solution assay, Δ fluorescence; type: cell-based, Staphylococcus aureus; conditions: S. aureus (gram +) about 5×10^7 cells/ml, gramicidin S 0.1 mg/ml, 37° C.
Method: as §4
Dispersions containing RIND compounds were prepared by dissolving the RIND compound in N,N-dimethylformamide (DMF) at 16 mg compound per ml of solvent. An aliquot (250 μl) of the resulting solution was added to 500 μl of TRITON X-100 surfactant. This mixture was then added dropwise with stirring to 25 ml of 0.05 molar HEPES buffer. A dispersion of RIND XXIX was prepared similarly except that DMF was acidified with 0.1% sulfuric acid. […]
The solutions were incubated at 37° C. for 30 minutes, and the change in fluorescence emission (Δ fluorescence) was determined as the difference between the readings taken when the solutions were first mixed and then after 30 minutes incubation. Measurements were made in a commercially available MICROFLUOR Reader (available from Dynatech Laboratories, Alexandria, Virginia, U.S.A.), modified with an excitation filter at 540 nm, an emission filter at 620 nm and a Xenon lamp.

K. pneumoniae = assay: RIND XXIX reduction solution assay, Δ fluorescence; type: cell-based, Klebsiella pneumoniae; conditions: K. pneumoniae (gram -) about 5×10^7 cells/ml, gramicidin S 0.1 mg/ml, 37° C.
Method: as §4, §5, §6, §7

P. vulgaris = assay: MTT reduction solution assay, ΔOD 540 nm; type: cell-based, Proteus vulgaris; conditions: P. vulgaris (-) 5×10^7, gramicidin S 0.00625 mg/ml, 37° C.
Method: as §1, §2, §3

P. aeruginosa = assay: RIND VII reduction solution assay, ΔOD 635 nm; type: cell-based, Pseudomonas aeruginosa; conditions: antibiotic 10^-4 molar
Method: as §4
TERGITOL 7 anionic surfactant was used to differentiate viable bacteria according to the prior art method. Various concentrations of TERGITOL 7 surfactant were mixed with a 10% glucose solution (50 μl), 3-(4,5-dimethyl-2-thiazolyl)-2,5-diphenyl-2N-tetrazolium bromide (MTT) (25 μl at 5 mg/ml methanol) or a RIND VII dispersion (1.5 ml) and phenazine methosulfate ETA (25 μl at 3 mg/ml methanol). The volume of each test solution was brought to 3 ml with potassium phosphate buffer. A cell suspension (100 μl at about 10^8 cells/ml) was then added. The solutions were incubated at 37° C. for 15 and 30 minutes in the presence of either E. coli, a gram(-) bacterium, or S. aureus, a gram(+) bacterium. The amount of dye formed was then determined visually, and graded as follows: "O" indicates no dye formation, +/- indicates faint dye formation, 1+ indicates light dye formation, 2+ indicates moderate dye formation, 3+ indicates strong dye formation, and 4+ indicates very strong dye formation. […]

[1] = system: viable gram-positive and gram-negative bacteria; assay: Differentiation with dry analytical element, overall result; type: cell-based; conditions: dry analytical element with RIND IX
Method: The element used had the format and components illustrated below
The appropriate cell suspension (10 μl) was applied to the spreading/reagent layer of each element. The reflection density (DR) was measured at 640 nm. After 10 minutes of incubation at 37° C., the DR was again measured, giving a ΔDr value. A Control solution (10 μl of either 0.5 molar HEPES or potassium phosphate buffer) was also applied to the elements and the ΔDR was similarly determined. The difference between the two ΔDR values gives a test value corrected for background.

What does the source list for gramicidin S?
ΔOD, 620 nm after 30 Minutes (E. coli): 1.042; Δ Fluorescence (30 Minutes) (E. cloacae): > 4000; Δ Fluorescence (30 Minutes) (S. aureus): 0478; Δ Fluorescence (30 Minutes) (K. pneumoniae): 3084; ΔOD, 540 nm after 30 Minutes (P. vulgaris): 0.841; Corrected ΔOD (15 Minutes) (P. aeruginosa; P. aeruginosa 7 × 10^7 /ml): 0.107; Corrected ΔOD (15 Minutes) (P. aeruginosa; P. aeruginosa, cell concentration 1.5 × 10^8 /ml): > 2.0; differentiation between viable gram-positive and gram-negative bacteria in an element, in words [1]: can be used in an element to differentiate between viable gram-positive and gram-negative bacteria
